Laboratory results from US5358951A, “Angiotensin II receptor blocking 2, 3, 6 substituted quinazolinones” (American Cyanamid Company, priority 1993, dated 1994).
Counter-ions that a name gives are not always drawn. Like-named read-outs stand apart in the source and are kept apart here.

Molecular target: T1, Angiotensin II Receptor (Bos taurus, UniProt P25104)
T1 construct: fresh adrenal glands received on crushed ice are cleaned of fatty tissues; from tissue; host or cells: beef adrenal cortex, microsomal membranes (100,000×g pellet)
T1 sequence (P25104 1-359): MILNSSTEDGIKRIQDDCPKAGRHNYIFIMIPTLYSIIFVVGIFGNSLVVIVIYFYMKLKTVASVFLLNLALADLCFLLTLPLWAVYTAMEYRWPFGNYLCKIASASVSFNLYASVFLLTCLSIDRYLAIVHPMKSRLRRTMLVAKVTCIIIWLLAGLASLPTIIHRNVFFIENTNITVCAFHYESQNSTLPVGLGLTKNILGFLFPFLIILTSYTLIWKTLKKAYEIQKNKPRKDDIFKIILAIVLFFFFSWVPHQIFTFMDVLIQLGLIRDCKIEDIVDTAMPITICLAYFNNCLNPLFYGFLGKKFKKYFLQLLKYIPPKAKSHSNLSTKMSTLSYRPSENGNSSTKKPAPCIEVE
Experiment: Receptor Binding Assay: displacement of [^125 I](Sar^1,Ile^8)AngII
Type: beef (adrenal cortex microsomal membranes)
Excerpt: Beef adrenals are obtained from a local slaughter house (Maxwell-Cohen). [^125 […]. 2200 Ci/mmole, is purchased from Dupont (NEN®, Boston, Mass.). All unlabeled AngII analogs, Dimethylsulfoxide (DMSO), nucleotides, bovine serum albumin (BSA) are purchased from Sigma Chemical Co., St. Louis, Mo. U.S.A. […] Approximately sixteen (16) to twenty (20) beef adrenal glands are processed as follows: fresh adrenal glands received on crushed ice are cleaned of fatty tissues and the tough membranes encapsulating the glands are removed and discarded. The brownish tissue forming the adrenal cortex is scraped off and finely minced with scissors before homogenization. Care is taken to avoid contamination with medullary tissue during dissection. The scraped cortices are suspended in twenty volumes of an ice-cold buffer medium consisting of 10 mM Tris.HCl (pH 7.4 at 22° C.) and containing 1.0 mM EDTA and 0.2M sucrose. Unless otherwise indicated, all subsequent operations are done at 4° C. […] The homogenate is centrifuged first at low speed (3,000×g) for 10 min. […] This P2 pellet is discarded and the liquid phase is carefully decanted off in clean centrifuge tubes and recentrifuged at high speed (100,000×g) for 60 min. The translucent final pellet is harvested and combined in a small volume (20-50.0 ml) of 50.0 mM Tris.HCl buffer, pH 7.2. A 100 ul aliquot is withdrawn and the protein content of the preparation is determined by the Lowry's method (Lowry, O. H., Rosebrough, […]. and Randall, R. J., Protein measurement with Folin phenol reagent. J. Biol. Chem., 48, 265-275, 1951). The pelleted membrane is reconstituted in 50.0 mM Tris.HCl buffer containing 0.1 mM of phenylmethylsulfonyl fluoride (PMSF) to give approximately a protein concentration of 2.5 mg per ml of tissue suspension. […] In competition studies, experimental compounds are diluted in dimethylsulfoxide (DMSO) and added in 20 ul to wells before the introduction of tissue membranes. […] Assays are performed in triplicate. The wells are left undisturbed for 60 min. at room temperature. Following incubation, all wells are harvested at once with a Brandel® Harvester especially designed for a 96 well plate (Brandel® Biomedical Research & Development Labs. Inc., Gaithersburg, Md., U.S.A.). The filter discs are washed with 10×1.0 ml of cold 0.9% NaCl to remove unbound ligand. […] This method is routinely used. The filters are removed from the filter grid and counted in a Parkard® Cobra Gamma Counter for 1 min. (Packard Instrument Co., Downers Grove, Ill., U.S.A.). The binding data are analyzed by the non-linear interactive "LUNDON-1" program (LUNDON SOFTWARE Inc., Cleveland, Ohio U.S.A.).

[1] = continuation of Table I headed BIOLOGICAL DATA, read-out: Biological Data
[2] = read-out: Angiotensin II Receptor Binding IC50

IC50 [1] [nM]	IC50 [2] [nM]	Structure (SMILES)
144	–	CCCCc1nc2ccc(C3(C(=O)OC)CC4CCCN4O3)cc2c(=O)n1Cc1ccc(-c2ccccc2-c2nnn[nH]2)cc1 (mixture of isomers) [Example 78, Trans(+/-)-Methyl-2-[2-butyl-3,4-dihydro-4-oxo-3-[[2'-(1H-tetrazol-5-yl)[1,1'-biphenyl]-4-yl]methyl-6-quinazolinyl]hexahydropyrrolo[1,2-b]isoxazole-2-carboxylate]
–	54	CCCCc1nc2ccc([C@@H]3C[C@H]4c5ccccc5CCN4O3)cc2c(=O)n1Cc1ccc(-c2ccccc2-c2nnn[nH]2)cc1 (relative stereo) [Example 63, Cis-2-Butyl-6-(1,5,6,10b-tetrahydro-2H-isoxazolo[3,2-a]isoquinolin-2-yl)-3-[[2'-(1H-tetrazol5-yl)[1,1'-biphenyl]-4-yl]methyl]-4(3H)-quinazolinone]
–	63	CCCCc1nc2ccc([C@@]3(CC)C[C@@H]4CCCN4O3)cc2c(=O)n1Cc1ccc(-c2ccccc2-c2nnn[nH]2)cc1 (relative stereo) [Example 71, Cis-2-butyl-6-(2-ethylhexahydropyrrolo[1,2b]isoxazol-2-yl)-3-[[2'-[1-(1H-tetrazol-5-yl)][1,1'-biphenyl]-4-yl]methyl]-4(3H)-quinazolinone]
31	–	CCCCc1nc2ccc([C@@]3(C)C[C@@H]4CCCN4O3)cc2c(=O)n1Cc1ccc(-c2ccccc2-c2nnn[nH]2)cc1 (relative stereo) [Example 73, Cis-2-Butyl-6-(hexahydro-2-methylpyrrolo[1,2-b]isoxazol-2-yl)-3-[[2'-(1H-(tetrazol-5-yl)[1,1'-biphenyl-4-yl]methyl]-4(3H)-quinazolinone sodium salt]
–	94	CCCCc1nc2ccc(C3(C)CC4c5ccccc5CCN4O3)cc2c(=O)n1Cc1ccc(-c2ccccc2-c2nnn[nH]2)cc1 (stereo not drawn) [Example 64, Cis and Trans-2-Butyl-6-(1,5,6,10b-tetrahydro-2-methyl-2H-isoxazolo[3,2-a]isoquinolin-2-yl)-3-[[2'-(1H-tetrazol-5-yl][1,1'-biphenyl]-4-yl]methyl]-4(3H)-quinazolinone]
